According to patent US7560096B2, “Diagnostic procedures using direct injection of gaseous hyperpolarized 129Xe and associated systems and products” (Medi-Physics, Inc, priority 2000, dated 2009):
Read-outs that look alike come from different tables or passages of the source.

Columns and labels:
[1] = cited from earlier work
[2] = NMR spectra after polarized 129Xe gas injection into the vein of a rabbit; format: in vivo
From the text: The signal strength at 8 seconds (FIG. 10P) being about 0.65 that of the original signal (FIG. 10A).
The rabbit survived the experiment. […] The signal strength at 8 seconds (FIG. 10P) being about 0.65 that of the original signal (FIG. 10A). The rabbit was placed in a whole body imager so that the exact location of the signal within the rabbit's body is not disclosed in the spectra. It is noted that a large quantity of the injected gas remained in the gas phase upon injection, most likely due to the size of the lumen used, about 0.5 mm.

[3] = Relaxation of hyperpolarized gas on container surface materials (GE180 glass, high purity aluminum); format: physicochemical; settings: for ψ (relaxivity of GE180 glass for the gas): from T1 and A/V=3/R
From the text: In order to calculate optimal capillary lengths, relaxivity values or estimates are needed. As a simple estimate, one can consider that an 180 cc spherical chamber of GE180 glass has a relaxation times of about 40 hr for ^3He and about 2 hr for ^129Xe. Knowing the relationship of “A/V=3/R” for a sphere, one can determine the relaxivity ψ of GE180 glass for both gases. The diffusion coefficients are noted for reference below.
The gas contacting surfaces of the injector head 300 can be formed of or coated with suitable materials to inhibit the depolarization of the gas as it travels therethrough. Examples of suitable materials include, but are not limited to, alumminosilicate glass, certain polymer materials or metallic materials or other materials as described herein. Surface coatings, such as a sputter coating of a non-depolarizing material of high purity silver or aluminum. The relaxivity of high purity aluminum for ^129Xe has been recently measured to be about 0.00225 cm/min. Metals other than aluminum which can be used include indium, gold, zinc, tin, copper, bismuth, silver, niobium, and oxides thereof. Preferably, “high purity” metals are employed (i.e., metals which are substantially free of paramagnetic or ferrous impurities) because even minute amounts of undesirable materials or contaminants may degrade the surface. Preferably, the metal is chosen such that it is well below 1 ppm in ferrous or paramagnetic impurity content.

[4] = noted for reference; cited from earlier work
[5] = inhalation, breath-hold; cited from earlier work
[6] = Bubble dissipation model (Krogh's coefficient) for gas bubbles in blood
From the text: To better understand bubble dissipation, one can model a string of contiguous bubbles as a cylinder to look at the diffusion of the gas out of the “cylinder” into the surrounding fluid to analyze how the bubble volume or radius decreases with time. Presser et al., in modeling a simulation as stated above, noted that the bubble radius “r” versus time can be represented by the equation: dr/dt=−KΔP/[rln(R/r)] where “K” is Krogh's coefficient (the product of solubility “S” and diffusion coefficient “D” of the gas in the surrounding fluid), “ΔP” is the pressure difference between gas in the bubbles and gas in the alveoli and “R” is the distance from the center of the bubbles to the inner edge of the adjacent alveoli.
That is, for comparative analysis, it is believed that one can evaluate the Krogh's coefficient (S×D) for Xe relative to air. The diffusion coefficient is substantially the same and can be cancelled out. For example, Xe in H2O is about 1.9×10^−5 cm^2/s while methane and water itself are at 2 and 2.3×10^−5 cm^2/s, respectively. Thus, solubility “S” becomes the important factor.

[7] = cited from earlier work; remark: listed apart in the source
[8] = Relaxation time (T1) of polarized 129Xe in blood and lung; format: physicochemical, human
From the text: Further, the hyperpolarized state of the gas is sensitive and can decay relatively quickly due to a number of relaxation mechanisms. Indeed, the relaxation time (generally represented by a decay constant “T1”) of the ^129Xe in the blood, absent other external depolarizing factors, is estimated at T1=4.0 seconds for venous blood and T1=6.4 s for arterial blood at a magnetic field strength of about 1.5 Tesla. See Wolber et al., Spin-lattice relaxation of laser-polarized xenon in human blood, 96 Proc. Natl. Acad. Sci. USA, pp. 3664-3669 (March 1999). (The more oxygenated arterial blood provides increased polarization life over the relatively de-oxygenated venous blood). Therefore, for about a 5 second transit time (the time estimate for the uptaken hyperpolarized ^129Xe to travel to the brain from the pulmonary vessels), the ^129Xe polarization is reduced to about 37% of its original value. In addition, the relaxation time of the polarized ^129Xe in the lung itself is typically about 20-25 seconds due to the presence of paramagnetic oxygen. Accordingly, ^129Xe taken up in the latter portion of the breath-hold cycle can decay to have only about 50% of the starting polarization (the polarization level at the initial portion of the breath hold cycle). Thus, generally stated, the average polarization of ^129Xe entering the pulmonary blood can be estimated to be at about 75% of the starting inhaled polarization value. Taking these effects into account, the delivery to the brain of the inhaled ^129Xe can be estimated as about 1.4 cubic centimeters of the inhaled one-liter dose of ^129Xe polarized to the same level as the inhaled gas (0.75×0.37×5 cc's). […] Nonetheless, at least one researcher has made coarse images of ^129Xe in rat brains, but this inhalation administration delivery required large quantities of ^129Xe to be inhaled over a relatively long period of time. […] Unfortunately, the extended inhalation time period and/or associated large quantity dosage of the gas may not be desirable for certain clinical applications.

[9] = Inhalation (breath-hold) delivery of hyperpolarized 129Xe: uptake and delivery to the brain; format: in vivo, human
From the text: In addition, due to the high solubility of ^129Xe in blood and tissues, vascular and tissue imaging using inhaled hyperpolarized ^129Xe has also been proposed. Generally described, during inhalation delivery, a quantity of hyperpolarized ^129Xe is inhaled by a subject (a subject breathes in the ^129Xe gas) and the subject then holds his or her breath for a short period of time, i.e., a “breath-hold” delivery. This inhaled ^129Xe gas volume then exits the lung space and is generally taken up by the pulmonary vessels and associated blood or pulmonary vasculature at a rate of approximately 0.3% per second. For example, for an inhaled quantity of about 1 liter of hyperpolarized ^129Xe, an estimated uptake is about 3 cubic centimeters per second or a total quantity of about 40 cubic centimeters of ^129Xe over about a 15 second breath-hold period. Accordingly, it has been noted that such uptake can be used to generate images of pulnonary vasculature or even organ systems more distant from the lungs. See co-pending and co-assigned U.S. patent application Ser. No. 09/271,476 to Driehuys et al, entitled Methods for Imaging Pulmonary and Cardiac Vasculature and Evaluating Blood Flow Using Dissolved Polarized ^129Xe. Although primarily directed to inhalation delivery, this application also proposes injection of ^129Xe to replace conventional radioactive tracers in perfusion imaging methods. The contents of this application are hereby incorporated by reference as if recited in full herein.
Many researchers are also interested in the possibility of using inhaled ^129Xe for imaging white matter perfusion in the brain, renal perfusion, and the like. While the inhaled delivery ^129Xe methods are suitable, and indeed, preferable, for many MRI applications for several reasons, such as the non-invasive characteristics attendant with such a delivery to a human subject, it may not be the most efficient method to deliver a sufficiently large dose to more distant (away from the pulmonary vasculature which is proximate to the lungs) target areas of interest. In addition, due to the dilution of the inhaled ^129Xe along the perfusion delivery path, relatively large quantities of the hyperpolarized ^129Xe are typically inhaled in order to deliver a small fraction of the gas to the more distal target sites or organ systems. For example, the brain typically receives only about 13% of the total blood flow in the human body. Thus, the estimated 40 cubic centimeter quantity of hyperpolarized ^129Xe taken up into the pulmonary vessels from the 1-liter inhalation dose can be reduced to only about 5 cubic centimeters by the time it reaches the brain.
Further, the hyperpolarized state of the gas is sensitive and can decay relatively quickly due to a number of relaxation mechanisms. Indeed, the relaxation time (generally represented by a decay constant “T1”) of the ^129Xe in the blood, absent other external depolarizing factors, is estimated at T1=4.0 seconds for venous blood and T1=6.4 s for arterial blood at a magnetic field strength of about 1.5 Tesla. See Wolber et al., Spin-lattice relaxation of laser-polarized xenon in human blood, 96 Proc. Natl. Acad. Sci. USA, pp. 3664-3669 (March 1999). (The more oxygenated arterial blood provides increased polarization life over the relatively de-oxygenated venous blood). […]

[10] = Solubilities of gases in water, plasma, blood and tissues; format: physicochemical
From the text: The feasibility of gaseous ^129Xe injection, particularly for arterial injections, may appear problematic. For example, it is known that arterial injections of air can lead to an undesirable air embolus. Although with intravenous (IV) injection the introduction of air is less of a concern, great care is typically taken to avoid such occurrences. The injection of CO2 is successful because of its high solubility in blood and the body's unique ability to remove it. The solubility of CO2 in blood and plasma can be difficult to measure because it is chemically metabolized.
Nonetheless, it is believed that the solubility that is of primary interest for the discussion herein and that the CO2 metabolism can be disregarded for the purposes of this comparison.

O [water]
Diffusion coefficient in H2O [1]: 2.3×10^−5 cm^2/s

[129Xe] [^129Xe]
Survival of the animal ([2]; about 3 cc gas injected into vein of rabbit): survived
Phase of the injected gas in the bloodstream during acquisition ([2]; about 3 cc into vein of rabbit, about 8 seconds): remained substantially in the gas phase
T1 of the gas in the blood ([2]; gas phase in the bloodstream, rabbit): at least 20 seconds
ψ (relaxivity of GE180 glass for the gas) [3]: 0.00017 cm/s
Relaxivity of high purity aluminum for 129Xe ([3]; high purity aluminum surface): about 0.00225 cm/min
D (diffusion coefficient of the gas) [4]: 0.065 cm^2/s
Rate of uptake of inhaled gas by pulmonary vessels and blood [5]: approximately 0.3 % per second
Bubble dissipation rate relative to air in blood ([6]; in blood, faster than air): about 11 times
Relaxation time T1 in arterial blood ([7]; arterial blood, about 1.5 Tesla): 6.4 s
Relaxation time in the lung ([7]; in the lung, presence of paramagnetic oxygen): 20 to 25 s
Relaxation time T1 in venous blood ([7]; venous blood, about 1.5 Tesla): 4.0 s
Polarization remaining relative to original value after transit to the brain ([8]; about 5 second transit time from pulmonary vessels to brain): about 37%
Average polarization of 129Xe entering the pulmonary blood, of starting inhaled polarization ([8]; inhalation, breath-hold): about 75%
Polarization of 129Xe taken up in the latter portion of the breath-hold cycle, of starting polarization ([8]; latter portion of breath-hold): about 50%
Quantity by the time it reaches the brain ([9]; from 40 cc taken up of 1-liter inhalation dose, brain receives about 13% of blood flow): about 5 cubic centimeters
Quantity delivered to remote target (brain) as fraction of inhaled 129Xe ([9]; inhalation): about 0.14%
Total quantity taken up ([9]; inhaled about 1 liter, about 15 second breath-hold): about 40 cubic centimeters
Delivery to the brain, as 129Xe polarized to the same level as the inhaled gas ([9]; inhaled one-liter dose (0.75×0.37×5 cc's)): about 1.4 cubic centimeters
Estimated uptake ([9]; inhaled quantity about 1 liter): about 3 cubic centimeters per second

C [methane]
Diffusion coefficient in H2O ([1]; exponent shared with the following value): 2 ×10^−5 cm^2/s

[Xe] [Xe, xenon]
Diffusion coefficient in H2O [1]: about 1.9×10^−5 cm^2/s
Solubility ratio of xenon gas to nitrogen gas in blood ([10]; 0.167/[…], air approximated as nitrogen): ~11
Solubility relative to air ([10]; in blood, compared with air): about 10 times
Time for a 30 μm radius bubble to dissipate ([6]; 30 μm radius bubble): about 20 seconds
Bubble dissipation rate (dr/dt) ([6]; estimated from solubility ratio to air in blood): −1.5 μm/s

[3He] [^3He, reference compound]
ψ (relaxivity of GE180 glass for the gas) [3]: 8.1e-06 cm/s
D (diffusion coefficient of the gas) [4]: 2.05 cm^2/s
